In US5407961A, “α-substituted benzenemethanamine derivatives and pharmaceutical use” (Janssen Pharmaceutica N.V., priority 1991, dated 1995):
≈ marks a conversion by molar mass, not a printed value. Where two headings read alike, the source gives them in different places.

Columns and labels:
HIV-1 = assay: in-vitro anti-HIV assay: inhibition of the HIV-induced cytopathic effect in HIV-infected MT-4 cells (MTT); format: cell-based, Human Immunodeficiency Virus; conditions: for SI (selectivity index): ratio of CD50 to ED50
Description: (§1) A rapid, sensitive and automated assay procedure was used for the in-vitro evaluation of anti-HIV agents. An […] T4-cell line, MT-4, which was previously shown (Koyanagi et al., Int. J. Cancer, 36, 445-451, 1985) to be highly susceptible to and permissive for HIV infection, served as the target cell line. Inhibition of the HIV-induced cytopathic effect was used as the end point. The viability of both HIV- and mock-infected cells was assessed spectrophotometrically via the in-situ reduction of 3-(4,5-dimethylthiazol-2-yl)-2,5-diphenyltetrazolium bromide (MTT). The 50% cytotoxic dose (CD50 in μg/ml) was defined as the concentration of compound that reduced the absorbance of the mock-infectedcontrol sample by 50%. The percent protection achieved by the compound in HIV-infected cells was calculated by the following formula: [formula] whereby (ODT)HIV is the optical density measured with a given concentration of the test compound in HIV-infected cells; (ODC)HIV is the optical density measured for the control untreated HIV-infected cells; (ODC)MOCK is the optical density measured for the control untreated mock-infected cells; all optical density values were determined at 540 nm. The dose achieving 50% protection according to the above formula was defined as the 50% effective dose (ED50 in μg/ml). The ratio of CD50 to ED50 was defined as the selectivity index (SI).

in vitro = format: cell-based; conditions: human, mt-4 cells
Description: as §1

[1] = Human immunodeficiency virus 1, MT4, dose achieving 50% protection in HIV-infected MT-4 cells, MTT, 540 nm, read-out: ED50 (50% effective dose)

Structure (SMILES)	EC50 (HIV-1; [1]) [µg/mL]	SI (selectivity index) (HIV-1)	CC50 (in vitro) [µg/mL]	EC50 (HIV-1; Human immunodeficiency virus 1, MT4, read-out: ED50 (50% effective dose)) [µg/mL]
Cc1cc2c(c(NC(C(N)=O)c3c(Cl)cccc3Cl)c1)C(=O)CC2 (racemic) [Compound 1, (±)-2,6-dichloro-α-[(2,3-dihydro-6-methyl-3-oxo-1H-inden-4-yl)amino]benzene-acetamide]	0.0038 (≈ 0.0105 µM)	54560	207 (≈ 570 µM)	–
NC(=O)C(Nc1cccc2c1C(=O)CO2)c1c(Cl)cccc1Cl (racemic) [Compound 9, (±)-2,6-dichloro-α-[(2,3-dihydro-3-oxo-4-benzofuranyl)amino]benzeneacetamide]	0.12 (≈ 0.342 µM)	1405	169 (≈ 480 µM)	–
CC(=O)c1ccccc1NC(C)c1c(Cl)cccc1Cl (racemic) [Compound 10, (±)-1-[2-[[1-(2,6-dichlorophenyl)ethyl]amino]phenyl]ethanone]	0.022 (≈ 0.0714 µM)	227	5 (≈ 16.2 µM)	–
O=[N+]([O-])c1ccccc1NC(CO)c1c(Cl)cccc1Cl (racemic) [Compound 12, (±)-2,6-dichloro-β-(2-nitrophenyl)amino]benzeneethanol]	0.18 (≈ 0.55 µM)	25	4.3 (≈ 13.1 µM)	–
CC(=O)c1ccccc1NC(c1c(Cl)cccc1Cl)C1CC1 (racemic) [Compound 14, (±)-1-[2-[[cyclopropyl-(2,6-dichlorophenyl)methyl]amino]phenyl]ethanone]	0.15 (≈ 0.449 µM)	27	4.1 (≈ 12.3 µM)	–
CC(=O)c1cc2c(cc1NC(C(N)=O)c1c(Cl)cccc1Cl)CCC2 (stereo not drawn) [Compound 5]	0.2 (≈ 0.53 µM)	50	10 (≈ 26.5 µM)	–
NC(=O)C(Nc1cc(Cl)cc2c1OCC2)c1c(Cl)cccc1Cl (stereo not drawn) [Compound 6]	0.079 (≈ 0.213 µM)	11	0.87 (≈ 2.34 µM)	–
NC(=O)C(Nc1cccc2ccc[n+]([O-])c12)c1c(Cl)cccc1Cl (stereo not drawn) [Compound 7]	–	3255	53 (≈ 146 µM)	0.047 (≈ 0.13 µM)
CCC(Nc1ccccc1C(C)=O)c1c(Cl)cccc1Cl (stereo not drawn) [Compound 11, 1-[2-[[1-(2,6-dichlorophenyl)propyl]amino]phenyl]ethanone]	0.52 (≈ 1.61 µM)	13	6.9 (≈ 21.4 µM)	–
CC(Nc1ccccc1[N+](=O)[O-])c1c(Cl)cccc1Cl (stereo not drawn) [Compound 13, 2,6-dichloro-α-methyl-N-(2-nitrophenyl)benzenemethanamine]	0.021 (≈ 0.0675 µM)	6	0.13 (≈ 0.418 µM)	–
